{
  "source": "patent US20080274959A1",
  "about": "“Actinomadura Chromoprotein, Apoprotein and Gene Cluster” (Wyeth, priority 2004, published 2008)",
  "key": {"[1]": {"test_system": "HCT116 cells", "assay": "Uptake of FITC-tagged protein, fluorescent microscopy / flow cytometry", "type": "cell-based, human", "source_text": "To determine the mechanism by which the chromoprotein enters cells and exerts its biological activity, the chromoprotein was labeled with a fluorescent tag (FITC) using EZ-Label fluorescent labeling kit (Pierce Biotechnology), according to the manufacturer's recommendation. […] Uptake of labeled material by HCT116 colon carcinoma cells was studied by fluorescent microscopy.\nTo determine whether an intact complex of chromophore and apoprotein is required for cellular and nuclear entry, the chromoprotein and apoprotein were labeled with FITC. Uptake of labeled material was studied by fluorescent microscopy.\nTo determine whether the entry of chromoprotein into cells is mediated by a saturable (e.g. cell surface receptor-dependent) process, HCT116 cells were incubated with FITC-labeled chromoprotein (FIG. 28, right panel) or apoprotein (FIG. 28, left panel) in the absence or presence of 10-fold excess of unlabeled reagent (unlabelled chromoprotein or apoprotein, respectively). Cells were analysed by fluorescent microscopy (left) or flow cytometry (right). […] Numbers in the histograms are mean channel numbers (FITC fluorescence).\nOther means by which a protein complex can enter cells is pinocytosis, where caveolae in the surface of the cell pinch off to form pinosomes that are free within the cytoplasm of the cell. Since pinocytosis is an energy-dependent process that requires a functional tubulin cytoskeletal network, we examined the effect of sodium azide, an energy uncoupling agent and nocodazole, an agent which disrupts the tubulin cytoskeleton on cellular uptake. HCT116 cells were treated with FITC-labeled apoprotein in the absence or presence of sodium azide or nocodazole."}, "[2]": {"test_system": "histone H1 in HeLa cells", "assay": "Digestion of histone H1 in HeLa cells, immunoblot", "type": "cell-based", "details": "overnight at 37° C., anti-histone H1 immunoblot", "protocol": "To study whether the digestion of histones by the chromoprotein occurs in intact cells, HeLa cells were incubated with compounds overnight at 37° C. Cell lysates were analysed by SDS-PAGE and protein immunoblotting using anti-histone H1 antibodies (Santa Cruz Biotechnologies). […] This activity can contribute to antitumor effects by digesting histones in chromatin, making the DNA more accessible for cleavage. This appears to be a unique activity of the chromoprotein enediynes."}, "[3]": {"test_system": "Histone H1", "assay": "Digestion of histone H1, SDS-PAGE", "type": "biochemical", "details": "50 mM Tris-Cl, pH 7.5 overnight at 37° C.", "protocol": "Histone H1 was incubated with various concentrations of the chromoprotein in 50 mM Tris-Cl, pH 7.5 overnight at 37° C. (FIG. 20) Digestions of histone were assessed by SDS-polyacrylamide gel electrophoresis (SDS-PAGE), followed by staining of the gel with GelCode Blue (Pierce Biotechnology, Inc, Rockford, Ill.)."}, "[4]": {"test_system": "KB", "assay": "IC50 against P-GP expressing cells: KB", "type": "cell-based", "details": "P-GP level −, mean of two independent experiments", "source_text": "(§1) Human PGP (MDR1) is an ATP-dependent efflux pump which is capable of transporting many drugs across cell membranes. High level expression of this protein has been linked to multiple drug resistance of tumors. […] The protein component of the chromoprotein probably protects the chromophore from drug efflux mediated by MDR1, and may be responsible for the beneficial antitumor effects in colon cell lines which often express MDR1."}, "[5]": {"test_system": "KB-8-5", "assay": "IC50 against P-GP expressing cells: KB-8-5", "type": "cell-based", "details": "KB-8-5, P-GP level +; mean of two independent experiments", "source_text": "as §1"}, "[6]": {"test_system": "KB-V-1", "assay": "IC50 against P-GP expressing cells: KB-V-1", "type": "cell-based", "details": "KB-V-1, P-GP level +++; mean of two independent experiments", "source_text": "as §1"}, "[7]": {"target": "T1, Human PGP (MDR1) (Homo sapiens, UniProt P08183)", "T1 construct": "endogenous in cells; parental KB is P-GP negative", "T1 sequence (P08183 whole entry)": "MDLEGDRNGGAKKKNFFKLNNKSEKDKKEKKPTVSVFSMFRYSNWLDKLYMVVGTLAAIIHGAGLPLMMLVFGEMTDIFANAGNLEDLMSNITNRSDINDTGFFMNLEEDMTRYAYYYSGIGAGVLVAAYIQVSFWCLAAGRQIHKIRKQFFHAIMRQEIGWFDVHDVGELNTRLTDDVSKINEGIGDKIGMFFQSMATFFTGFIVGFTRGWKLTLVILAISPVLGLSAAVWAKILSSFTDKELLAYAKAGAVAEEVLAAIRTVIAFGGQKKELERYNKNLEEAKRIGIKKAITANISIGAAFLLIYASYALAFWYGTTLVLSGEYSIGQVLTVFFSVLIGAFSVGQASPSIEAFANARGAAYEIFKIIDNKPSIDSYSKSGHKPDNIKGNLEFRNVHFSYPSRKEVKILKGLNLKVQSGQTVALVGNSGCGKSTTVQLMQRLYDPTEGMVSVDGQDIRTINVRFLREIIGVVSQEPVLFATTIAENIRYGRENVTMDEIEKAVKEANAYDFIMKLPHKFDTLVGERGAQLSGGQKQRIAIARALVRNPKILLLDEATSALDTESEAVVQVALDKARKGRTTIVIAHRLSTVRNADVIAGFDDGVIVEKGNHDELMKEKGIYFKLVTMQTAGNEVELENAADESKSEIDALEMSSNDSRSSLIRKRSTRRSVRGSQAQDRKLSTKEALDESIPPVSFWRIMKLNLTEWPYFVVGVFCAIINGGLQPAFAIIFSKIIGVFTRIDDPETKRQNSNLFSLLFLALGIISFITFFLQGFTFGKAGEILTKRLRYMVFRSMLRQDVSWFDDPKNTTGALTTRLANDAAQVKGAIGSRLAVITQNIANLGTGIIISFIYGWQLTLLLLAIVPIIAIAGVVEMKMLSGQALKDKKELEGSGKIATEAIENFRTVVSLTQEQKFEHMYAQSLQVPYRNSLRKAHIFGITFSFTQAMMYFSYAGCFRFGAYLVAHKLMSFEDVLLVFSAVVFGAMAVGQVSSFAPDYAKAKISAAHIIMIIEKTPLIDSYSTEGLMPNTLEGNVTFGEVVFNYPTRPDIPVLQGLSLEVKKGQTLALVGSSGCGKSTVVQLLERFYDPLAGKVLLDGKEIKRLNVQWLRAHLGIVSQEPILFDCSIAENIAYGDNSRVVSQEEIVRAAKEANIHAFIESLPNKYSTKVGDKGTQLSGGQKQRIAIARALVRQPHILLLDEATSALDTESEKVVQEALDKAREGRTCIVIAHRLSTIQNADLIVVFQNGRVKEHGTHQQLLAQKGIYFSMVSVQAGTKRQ", "assay": "Transport by P-GP (MDR-1)", "type": "cell-based", "details": "judged from IC50 in KB, KB-8-5, KB-V-1 cells", "source_text": "as §1"}, "[8]": {"test_system": "human tumor cell line panel", "assay": "In vitro anti-tumor activity, human tumor cell line panel", "type": "cell-based", "details": "apoprotein alone"}},
  "data": [
    {"molecule": "COC(=O)Nc1nc2ccc(C(=O)c3cccs3)cc2[nH]1", "note": "[nocodazole, reference compound]", "values": [
      {"measurement": "effect on uptake of FITC-labeled apoprotein", "setting": "[1]; HCT116 cells", "value": "inhibited uptake of label"}
    ]},
    {"molecule": "bleomycin", "values": [
      {"measurement": "histone H1 in cells after incubation", "setting": "[2]", "value": "No effect"}
    ]},
    {"molecule": "calicheamicin [reference compound]", "values": [
      {"measurement": "digestion of histone H1", "setting": "[3]", "value": "did not cleave histone H1"},
      {"measurement": "histone H1 in cells after incubation", "setting": "[2]", "value": "No effect"},
      {"measurement": "IC50", "setting": "[4]", "value": 0.003, "unit": "µg/mL"},
      {"measurement": "IC50", "setting": "[5]", "value": 0.021, "unit": "µg/mL"},
      {"measurement": "IC50", "setting": "[6]", "value": ">1", "unit": "µg/mL"},
      {"measurement": "MDR1 substrate", "setting": "[7]", "value": "good substrate for MDR1"}
    ]},
    {"molecule": "apoprotein: protein component of the 21G792 chromoprotein without chromophore, SEQ ID NO:150, 12.92409 kDa by MALDI-MS (protein, Actinomadura sp. 21G792) DTVTVNYDCVGYPSDIAVTIDAPATAGVGDTATFEVSSVVTTGAPQDLPAGEVVTDMAIVVGGAQSGTITASGLTNEATPAGQPVNMVGGEAQITFTSAGSVTFTPSTTTQVDNGAQCTVVGEAPVGATTVVS", "values": [
      {"measurement": "in vitro anti-tumor activity", "setting": "[8]", "value": "inactive"},
      {"measurement": "digestion of histone H1", "setting": "[3]", "value": "no activity"},
      {"measurement": "uptake, apoprotein compared with chromoprotein", "setting": "[1]; FITC-labeled", "value": "similar"},
      {"measurement": "competition of uptake by 10-fold excess of unlabeled reagent", "setting": "[1]; FITC-labeled, microscopy or flow cytometry", "value": "No competition of label"}
    ]}
  ]
}
